Test system: P12-Ichikawa
Assay: cell viability relative to DMSO control; higher = less cytotoxic
Details: 48 h
Method in brief: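 Viability was expressed as a per-plate percentage of DMSO wells, with cell-free wells as background. Leukemia cells (NOMO1 or SEM at 500 cells/well, P12-Ichikawa at 1000 cells/well) were adapted for at least four passages in each medium and seeded in 1536-well plates (5 μl). Library compounds in DMSO were pin-dosed over an 11-point threefold series from 47 μM to 0.79 nM, and CellTiter-Glo One luminescence was read after 48 h at 37°C.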

[1] = HPLM + 10% dialyzed FBS, 0.000781 µM
[2] = HPLM + 10% dialyzed FBS, 0.00234 µM
[3] = HPLM + 10% dialyzed FBS, 0.00702 µM
[4] = HPLM + 10% dialyzed FBS, 0.0211 µM
[5] = HPLM + 10% dialyzed FBS, 0.0632 µM
[6] = HPLM + 10% dialyzed FBS, 0.19 µM
[7] = HPLM + 10% dialyzed FBS, 0.569 µM
[8] = HPLM + 10% dialyzed FBS, 1.71 µM
[9] = HPLM + 10% dialyzed FBS, 5.12 µM
[10] = HPLM + 10% dialyzed FBS, 15.4 µM
[11] = HPLM + 10% dialyzed FBS, 46.1 µM
[12] = RPMI 5 mM glucose + 10% FBS, 0.000781 µM
[13] = RPMI 5 mM glucose + 10% FBS, 0.00234 µM
[14] = RPMI 5 mM glucose + 10% FBS, 0.00702 µM
[15] = RPMI 5 mM glucose + 10% FBS, 0.0211 µM
[16] = RPMI 5 mM glucose + 10% FBS, 0.0632 µM
[17] = RPMI 5 mM glucose + 10% FBS, 0.19 µM
[18] = RPMI 5 mM glucose + 10% FBS, 0.569 µM
[19] = RPMI 5 mM glucose + 10% FBS, 1.71 µM
[20] = RPMI 5 mM glucose + 10% FBS, 5.12 µM
[21] = RPMI 5 mM glucose + 10% FBS, 15.4 µM
[22] = RPMI 5 mM glucose + 10% FBS, 46.1 µM
[23] = RPMI 5 mM glucose + 10% dialyzed FBS, 0.000781 µM
[24] = RPMI 5 mM glucose + 10% dialyzed FBS, 0.00234 µM
[25] = RPMI 5 mM glucose + 10% dialyzed FBS, 0.00702 µM
[26] = RPMI 5 mM glucose + 10% dialyzed FBS, 0.0211 µM
[27] = RPMI 5 mM glucose + 10% dialyzed FBS, 0.0632 µM
[28] = RPMI 5 mM glucose + 10% dialyzed FBS, 0.19 µM
[29] = RPMI 5 mM glucose + 10% dialyzed FBS, 0.569 µM
[30] = RPMI 5 mM glucose + 10% dialyzed FBS, 1.71 µM
[31] = RPMI 5 mM glucose + 10% dialyzed FBS, 5.12 µM
[32] = RPMI 5 mM glucose + 10% dialyzed FBS, 15.4 µM
[33] = RPMI 5 mM glucose + 10% dialyzed FBS, 46.1 µM

Compound	cell viability [1] [%]	cell viability [2] [%]	cell viability [3] [%]	cell viability [4] [%]	cell viability [5] [%]	cell viability [6] [%]	cell viability [7] [%]	cell viability [8] [%]	cell viability [9] [%]	cell viability [10] [%]	cell viability [11] [%]	cell viability [12] [%]	cell viability [13] [%]	cell viability [14] [%]	cell viability [15] [%]	cell viability [16] [%]	cell viability [17] [%]	cell viability [18] [%]	cell viability [19] [%]	cell viability [20] [%]	cell viability [21] [%]	cell viability [22] [%]	cell viability [23] [%]	cell viability [24] [%]	cell viability [25] [%]	cell viability [26] [%]	cell viability [27] [%]	cell viability [28] [%]	cell viability [29] [%]	cell viability [30] [%]	cell viability [31] [%]	cell viability [32] [%]	cell viability [33] [%]
C[C@@]12C(=O)OC(=O)[C@@]1(C)C1CCC2O1	106	103	106	112	111	108	109	92.2	90	13.2	12.4	110	102	102	109	106	98.9	103	102	92.3	8.07	6.24	104	111	109	104	105	109	105	97.5	93.3	10.6	7.9
c1ccc(CCCN2CCN(CCOC(c3ccccc3)c3ccccc3)CC2)cc1	89.2	90.8	104	95.5	99.2	91.3	89.7	87.5	91.6	77.3	67.3	91.4	97.1	94.4	94.5	93.9	94	98.2	90.2	92.3	78.4	55	83.7	88.3	88	91.4	94.1	85	94.7	87.1	88.5	75.2	38.3
C[C@]12CC[C@@H]3c4ccc(O)cc4CC[C@H]3[C@@H]1[C@@H](O)[C@@H](O)[C@@H]2O	119	117	119	112	120	124	122	120	119	125	124	105	113	109	104	123	118	122	121	126	131	113	111	120	118	115	120	127	127	133	127	129	135
COc1ccc([S+](=O)([O-])N(C(C)=O)c2ccccc2/C=C/c2cc[n+]([O-])cc2)cc1	119	125	118	121	125	118	116	64.9	24.5	25.1	10.5																						
CC(C)C1NC(=O)C(NC(=O)C2=C3\N=C\4/C(=C(C)\C(=O)\C(=C4C(=O)NC5C(C)OC(=O)C(C(C)C)N(C)C(=O)CN(C)C(=O)C6CCCN6C(=O)C(NC5=O)C(C)C)N)OC3=C(C)C=C2)C(C)OC(=O)C(C(C)C)N(C)C(=O)CN(C)C(=O)C7CCCN7C1=O (configuration not stated)	8.89	7.61	7.74	7.98	8.48	7.48	8.02	5.74	3.17	4.3	1.52	7.97	8.99	7.91	6.03	5.96	6.1	5.29	3.26	1.15	2.04	1.27	9.93	10.6	9.2	10.8	7.89	8.14	8.28	7.16	6.45	4.57	3.47
C[C@@H](Oc1cc(-c2cnn(C3CCNCC3)c2)cnc1N)c1c(Cl)ccc(F)c1Cl	118	119	115	118	115	120	111	95.7	90.6	73.5	18.9	116	118	123	116	124	117	115	113	82.2	68.9	21.4											
CN(C)[S+](=O)([O-])c1ccc2c(c1)C(=Cc1cc3c([nH]1)CCCC3)C(=O)N2	124	114	122	121	123	117	125	122	111	110	112												118	125	121	116	114	125	128	124	122	106	108
COc1ccc(-c2ccc3ncc4c(c3c2)n(-c2ccc(N3CCNCC3)c(C(F)(F)F)c2)c(=O)n4C)cn1	99.5	92.5	79.1	74.1	72.5	48.5	48.9	40.1	30	4.22	3.22	81.7	73.2	72.3	64.2	59.4	34.7	22	8.29	6.08	4.14	4	86.1	91.5	63	65.8	60.9	47.1	34	5.19	5.18	4.63	3.63
C[C@H](NC(=O)c1sccc1OCc1ccc(Cl)cc1)c1ccccc1	97.3	87.7	88.8	83.9	84.4	78	86.3	87.2	81.2	86.2	82.7	84.7	84.5	80.8	85.2	92	86.4	81	85	74.5	83.5	78	84.6	90	91.9	88.3	88.4	83.2	91.1	77.1	74.5	82.1	86
CC(C)c1nc(CN(C)C(=O)N[C@H](C(=O)N[C@@H](Cc2ccccc2)C[C@H](O)[C@H](Cc2ccccc2)NC(=O)OCc2cncs2)C(C)C)cs1	91.9	87.4	87.2	102	103	92.1	78.4	78.2	83.9	85.8	89.6	87.2	86.5	87.7	84.2	92.4	92.6	77.2	90.1	81.5	79.8	88.2	85.3	79.8	89.4	83.4	92.6	87.2	70.8	82.2	77.9	82.8	82.3
C[C@H]1COC2=C3N1\C=C(C(O)=O)/C(=O)C3=CC(=C2N4CCN(C)CC4)F	117	116	121	116	109	113	97.2	109	92.7	85.6	82.9	111	113	117	120	98.2	116	98.6	103	84.2	62.5	70.4	109	111	114	118	108	112	91.7	94.7	82.4	74.2	62.6
O=C(O)CCC1CCC(c2cc(F)ccc2F)([S+](=O)([O-])c2ccc(Cl)cc2)CC1 (configuration not stated)	105	114	117	115	114	121	128	118	86.7	21.5	9.14	99	125	117	126	118	116	128	140	109	24.3	9.78	103	117	123	123	123	118	124	125	112	56.7	13.2
C[C@@H]1COCCN1c1cc(C2([S@+](C)(=N)[O-])CC2)nc(-c2ccnc3[nH]ccc23)n1	99.7	103	106	110	110	109	99.8	92.3	47.5	15.7	7.87	104	105	118	114	109	114	104	90.7	55	19.7	7.94	99.4	110	117	113	123	128	109	84.7	40.8	16.5	8.66
CCOC(=O)c1ccc(OC(=O)CCCCCNC(=N)N)cc1	117	121	123	122	125	126	124	76	10.7	16.3	17.4																						
CCc1ccc(CCOc2ccc(CC3SC(=O)NC3=O)cc2)nc1 (configuration not stated)	121	118	123	117	116	113	113	113	108	108	108	118	112	118	115	117	112	127	119	109	118	119	123	118	129	120	126	116	114	121	120	111	100
FC1=CC=C(C=C1)N2/C=C\C=C(C(=O)NC3=CC=C(OC4=C5C=C[NH]C5=NC=C4)C(=C3)F)/C2=O	99	111	107	114	117	118	122	112	114	123	115	104	111	121	112	132	119	128	122	127	119	111	109	107	114	125	117	124	125	119	129	120	114
